Results as given in PMC12827894, “Structure-guided design of picomolar-level macrocyclic TRPC5 channel inhibitors with antidepressant activity” (Acta Pharmaceutica Sinica. B, 2025).

How the values were obtained:
[1] = molecular target: T1, M3 (Homo sapiens, UniProt P20309); assay: cell-based; type: cell-based
T1 construct: purchased ICE Bioscience ICESTP SafetyOne44 Panel

[2] = molecular target: T2, Nav1.5 (Homo sapiens, UniProt Q14524); assay: SafetyOne44 panel ion channels: Nav1.5; type: cell-based; details: Nav1.5, 5 μmol/L
T2 construct: ICE Bioscience ICESTP SafetyOne44 Panel

[3] = molecular target: T3, nAChRα4β2 (Homo sapiens, UniProt P17787+P43681); assay: SafetyOne44 panel ion channels: nAChRα4β2; type: cell-based; details: 5 μmol/L
T3 construct: ICE Bioscience ICESTP SafetyOne44 Panel

[4] = in vivo; details: male, C57BL/6, mouse; for Vd: C57BL/6, 2 mpk
[5] = test system: C57BL/6 mice; assay: Tail suspension test (TST); type: in vivo
[6] = molecular target: hERG (Homo sapiens, UniProt Q12809); type: cell-based; parameters: purchased ICE Bioscience ICESTP SafetyOne44 Panel
[7] = molecular target: T4, LCK (Homo sapiens, UniProt P06239); assay: biochemical; details: 10 μmol/L, read-out: Antagonist JDIC-127 @10 μmol/L
T4 construct: purchased ICE Bioscience ICESTP™ SafetyOne44 Panel

[8] = molecular target: T5, IKs (Homo sapiens, UniProt P51787); assay: SafetyOne44 panel ion channels: IKs; type: cell-based; details: 5 μmol/L
T5 construct: ICE Bioscience ICESTP SafetyOne44 Panel

[9] = molecular target: T6, TRPC5 (Homo sapiens, UniProt Q9UL62); type: cell-based; details: 100 nmol/L EA; read-out: IC50, TRPC5, whole-cell patch-clamp
T6 sequence (Q9UL62 1-973): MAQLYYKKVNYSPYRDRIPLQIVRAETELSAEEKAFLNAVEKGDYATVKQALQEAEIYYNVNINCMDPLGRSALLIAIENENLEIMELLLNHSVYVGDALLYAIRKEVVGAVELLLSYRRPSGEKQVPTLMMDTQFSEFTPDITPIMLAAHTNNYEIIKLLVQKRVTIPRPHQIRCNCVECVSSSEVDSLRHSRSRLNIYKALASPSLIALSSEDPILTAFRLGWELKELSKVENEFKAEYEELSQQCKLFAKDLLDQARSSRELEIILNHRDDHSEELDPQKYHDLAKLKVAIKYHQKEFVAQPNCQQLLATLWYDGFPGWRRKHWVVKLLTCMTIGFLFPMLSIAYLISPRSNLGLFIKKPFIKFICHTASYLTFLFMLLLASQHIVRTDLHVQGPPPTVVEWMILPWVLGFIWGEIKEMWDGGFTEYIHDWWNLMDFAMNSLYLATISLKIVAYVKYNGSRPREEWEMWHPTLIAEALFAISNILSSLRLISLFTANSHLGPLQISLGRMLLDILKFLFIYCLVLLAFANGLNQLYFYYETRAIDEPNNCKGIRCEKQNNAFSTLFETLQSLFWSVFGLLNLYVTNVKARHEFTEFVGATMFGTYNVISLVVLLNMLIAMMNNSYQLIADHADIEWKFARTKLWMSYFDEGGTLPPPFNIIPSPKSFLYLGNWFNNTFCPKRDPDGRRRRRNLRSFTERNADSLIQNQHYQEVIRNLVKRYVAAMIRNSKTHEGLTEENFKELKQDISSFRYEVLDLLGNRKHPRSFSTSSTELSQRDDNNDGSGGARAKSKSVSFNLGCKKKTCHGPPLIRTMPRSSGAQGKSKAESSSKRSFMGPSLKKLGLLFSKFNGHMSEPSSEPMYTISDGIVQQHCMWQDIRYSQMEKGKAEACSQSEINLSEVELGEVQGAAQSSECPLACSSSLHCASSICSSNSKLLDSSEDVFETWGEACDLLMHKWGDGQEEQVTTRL

[10] = test system: 44 clinically safety-related targets
[11] = test system: C57BL/6J mice; assay: m-CPP-induced anxiety model, elevated plus maze; type: in vivo; details: 10 mg/kg p.o.
[12] = test system: C57BL/6J mice; assay: CCK-4-induced anxiety model, elevated plus maze; type: in vivo; details: CCK-4 model, 10 mg/kg p.o.
[13] = molecular target: TRPC3 (Homo sapiens, UniProt Q13507); assay: Patch-clamp selectivity, TRPC3; type: cell-based; details: 1 μmol/L
[14] = molecular target: T7, PDE4 D2 (Homo sapiens, UniProt Q08499); assay: biochemical; details: PDE4D2, 10 μmol/L; read-out: Antagonist JDIC-127 @10 μmol/L
T7 construct: purchased ICE Bioscience ICESTP™ SafetyOne44 Panel

[15] = molecular target: T8, CB2 (Homo sapiens, UniProt P34972); assay: cell-based; type: cell-based
T8 construct: purchased ICE Bioscience ICESTP™ SafetyOne44 Panel
T8 sequence (P34972 whole entry): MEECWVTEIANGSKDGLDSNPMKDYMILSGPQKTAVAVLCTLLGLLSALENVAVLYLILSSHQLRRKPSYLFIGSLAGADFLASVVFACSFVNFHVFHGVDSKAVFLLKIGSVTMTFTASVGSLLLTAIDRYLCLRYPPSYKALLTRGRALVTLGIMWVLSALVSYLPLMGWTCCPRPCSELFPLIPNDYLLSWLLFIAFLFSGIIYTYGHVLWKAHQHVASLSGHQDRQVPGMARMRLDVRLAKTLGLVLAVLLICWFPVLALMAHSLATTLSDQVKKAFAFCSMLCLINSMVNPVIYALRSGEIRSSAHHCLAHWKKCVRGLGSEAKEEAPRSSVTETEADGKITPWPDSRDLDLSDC

T1 sequence (P20309 whole entry): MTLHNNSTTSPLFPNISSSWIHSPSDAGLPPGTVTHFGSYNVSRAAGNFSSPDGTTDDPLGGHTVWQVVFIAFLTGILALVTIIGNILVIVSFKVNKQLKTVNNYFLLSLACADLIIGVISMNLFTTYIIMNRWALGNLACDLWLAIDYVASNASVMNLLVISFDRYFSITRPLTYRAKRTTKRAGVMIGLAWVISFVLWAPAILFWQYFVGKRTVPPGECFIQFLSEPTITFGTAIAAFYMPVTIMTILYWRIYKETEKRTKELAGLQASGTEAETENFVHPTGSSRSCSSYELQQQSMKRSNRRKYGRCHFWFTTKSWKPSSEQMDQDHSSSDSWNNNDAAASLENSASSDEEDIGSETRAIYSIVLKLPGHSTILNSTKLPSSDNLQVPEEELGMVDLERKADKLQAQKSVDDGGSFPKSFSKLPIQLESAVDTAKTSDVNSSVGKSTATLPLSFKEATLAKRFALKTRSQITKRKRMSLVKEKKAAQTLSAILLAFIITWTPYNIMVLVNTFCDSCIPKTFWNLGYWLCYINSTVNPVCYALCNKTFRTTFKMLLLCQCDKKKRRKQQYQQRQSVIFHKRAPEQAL
T3 sequence (P43681 29-627 limits assumed): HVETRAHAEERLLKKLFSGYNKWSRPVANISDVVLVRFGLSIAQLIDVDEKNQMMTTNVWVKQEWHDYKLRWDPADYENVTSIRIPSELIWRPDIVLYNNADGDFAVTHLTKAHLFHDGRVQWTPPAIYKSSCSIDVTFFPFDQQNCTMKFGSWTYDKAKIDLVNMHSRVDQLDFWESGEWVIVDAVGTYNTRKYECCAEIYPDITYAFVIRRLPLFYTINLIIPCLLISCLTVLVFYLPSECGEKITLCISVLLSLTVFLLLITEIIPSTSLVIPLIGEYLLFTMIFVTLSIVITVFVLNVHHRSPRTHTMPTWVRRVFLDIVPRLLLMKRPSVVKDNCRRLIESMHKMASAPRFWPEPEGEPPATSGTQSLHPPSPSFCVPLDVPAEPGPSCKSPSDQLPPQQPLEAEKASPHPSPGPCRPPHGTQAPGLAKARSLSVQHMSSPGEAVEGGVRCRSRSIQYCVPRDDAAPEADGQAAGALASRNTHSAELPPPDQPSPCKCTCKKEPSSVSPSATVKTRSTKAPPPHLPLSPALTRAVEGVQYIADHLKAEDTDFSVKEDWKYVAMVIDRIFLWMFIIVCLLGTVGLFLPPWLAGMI
T3 sequence (P17787 26-502): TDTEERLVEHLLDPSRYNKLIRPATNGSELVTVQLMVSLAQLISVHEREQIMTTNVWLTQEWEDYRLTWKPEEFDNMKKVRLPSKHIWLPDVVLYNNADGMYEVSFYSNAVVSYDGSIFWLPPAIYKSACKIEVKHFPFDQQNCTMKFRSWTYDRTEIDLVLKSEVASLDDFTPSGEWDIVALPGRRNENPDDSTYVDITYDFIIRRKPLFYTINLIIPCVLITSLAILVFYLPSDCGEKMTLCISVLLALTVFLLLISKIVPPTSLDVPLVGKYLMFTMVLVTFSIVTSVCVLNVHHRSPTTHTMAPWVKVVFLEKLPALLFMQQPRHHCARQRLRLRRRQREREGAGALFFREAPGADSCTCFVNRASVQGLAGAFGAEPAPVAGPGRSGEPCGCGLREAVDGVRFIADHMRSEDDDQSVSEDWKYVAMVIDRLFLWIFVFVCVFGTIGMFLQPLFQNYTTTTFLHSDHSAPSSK
TRPC3, sequence (Q13507 whole entry, species assumed): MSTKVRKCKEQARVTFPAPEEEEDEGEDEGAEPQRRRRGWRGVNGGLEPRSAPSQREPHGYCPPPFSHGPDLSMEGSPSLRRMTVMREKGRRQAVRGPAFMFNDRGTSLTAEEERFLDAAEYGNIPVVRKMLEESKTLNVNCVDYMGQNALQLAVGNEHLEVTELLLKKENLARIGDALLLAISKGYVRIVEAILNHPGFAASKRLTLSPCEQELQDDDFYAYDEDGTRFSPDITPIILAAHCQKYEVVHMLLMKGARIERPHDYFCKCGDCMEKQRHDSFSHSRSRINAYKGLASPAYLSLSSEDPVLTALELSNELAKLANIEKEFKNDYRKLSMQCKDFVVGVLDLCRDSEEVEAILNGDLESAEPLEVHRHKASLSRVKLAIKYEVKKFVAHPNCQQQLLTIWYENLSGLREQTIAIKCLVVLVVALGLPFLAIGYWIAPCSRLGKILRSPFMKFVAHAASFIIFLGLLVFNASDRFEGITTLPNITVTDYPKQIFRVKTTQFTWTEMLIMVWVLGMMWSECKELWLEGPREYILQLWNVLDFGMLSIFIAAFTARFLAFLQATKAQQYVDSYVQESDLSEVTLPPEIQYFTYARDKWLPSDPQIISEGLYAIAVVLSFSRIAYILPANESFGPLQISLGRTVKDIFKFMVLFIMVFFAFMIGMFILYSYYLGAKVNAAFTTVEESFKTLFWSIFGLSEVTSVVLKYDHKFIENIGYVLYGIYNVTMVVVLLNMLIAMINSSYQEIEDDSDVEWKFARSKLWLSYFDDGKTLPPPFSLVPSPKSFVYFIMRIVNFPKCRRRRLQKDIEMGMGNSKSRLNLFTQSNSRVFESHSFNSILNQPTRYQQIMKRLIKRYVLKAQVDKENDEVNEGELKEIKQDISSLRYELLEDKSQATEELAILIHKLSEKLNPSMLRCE
hERG, sequence (Q12809 whole entry): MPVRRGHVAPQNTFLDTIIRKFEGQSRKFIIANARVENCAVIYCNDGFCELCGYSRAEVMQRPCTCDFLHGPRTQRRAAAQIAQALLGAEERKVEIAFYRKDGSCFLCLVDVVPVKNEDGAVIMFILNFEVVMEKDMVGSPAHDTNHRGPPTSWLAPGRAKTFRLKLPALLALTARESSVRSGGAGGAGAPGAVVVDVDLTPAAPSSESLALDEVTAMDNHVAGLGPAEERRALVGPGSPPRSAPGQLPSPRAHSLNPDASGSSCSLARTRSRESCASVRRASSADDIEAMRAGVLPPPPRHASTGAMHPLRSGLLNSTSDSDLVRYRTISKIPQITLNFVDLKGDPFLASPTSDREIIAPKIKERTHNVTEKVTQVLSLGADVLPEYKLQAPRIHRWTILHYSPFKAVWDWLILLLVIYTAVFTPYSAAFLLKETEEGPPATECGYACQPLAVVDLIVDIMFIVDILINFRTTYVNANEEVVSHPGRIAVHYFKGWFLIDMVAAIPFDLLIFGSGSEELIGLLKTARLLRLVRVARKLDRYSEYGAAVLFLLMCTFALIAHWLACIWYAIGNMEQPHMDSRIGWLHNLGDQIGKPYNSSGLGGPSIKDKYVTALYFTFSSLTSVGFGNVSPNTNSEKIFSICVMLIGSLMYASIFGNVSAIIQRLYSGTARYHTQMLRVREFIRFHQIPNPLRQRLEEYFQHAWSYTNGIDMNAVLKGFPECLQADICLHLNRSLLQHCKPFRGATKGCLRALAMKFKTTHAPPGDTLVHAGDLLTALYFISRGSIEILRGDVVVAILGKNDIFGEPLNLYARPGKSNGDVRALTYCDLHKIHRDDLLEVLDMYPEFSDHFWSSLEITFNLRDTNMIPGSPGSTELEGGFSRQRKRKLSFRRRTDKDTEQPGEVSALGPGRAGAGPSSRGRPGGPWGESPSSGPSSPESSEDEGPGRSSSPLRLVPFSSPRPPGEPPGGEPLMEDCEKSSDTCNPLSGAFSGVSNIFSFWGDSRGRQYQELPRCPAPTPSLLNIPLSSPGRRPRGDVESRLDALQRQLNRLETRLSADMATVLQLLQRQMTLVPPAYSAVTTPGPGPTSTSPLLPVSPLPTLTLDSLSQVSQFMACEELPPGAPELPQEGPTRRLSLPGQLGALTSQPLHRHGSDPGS
T5 sequence (P51787 whole entry): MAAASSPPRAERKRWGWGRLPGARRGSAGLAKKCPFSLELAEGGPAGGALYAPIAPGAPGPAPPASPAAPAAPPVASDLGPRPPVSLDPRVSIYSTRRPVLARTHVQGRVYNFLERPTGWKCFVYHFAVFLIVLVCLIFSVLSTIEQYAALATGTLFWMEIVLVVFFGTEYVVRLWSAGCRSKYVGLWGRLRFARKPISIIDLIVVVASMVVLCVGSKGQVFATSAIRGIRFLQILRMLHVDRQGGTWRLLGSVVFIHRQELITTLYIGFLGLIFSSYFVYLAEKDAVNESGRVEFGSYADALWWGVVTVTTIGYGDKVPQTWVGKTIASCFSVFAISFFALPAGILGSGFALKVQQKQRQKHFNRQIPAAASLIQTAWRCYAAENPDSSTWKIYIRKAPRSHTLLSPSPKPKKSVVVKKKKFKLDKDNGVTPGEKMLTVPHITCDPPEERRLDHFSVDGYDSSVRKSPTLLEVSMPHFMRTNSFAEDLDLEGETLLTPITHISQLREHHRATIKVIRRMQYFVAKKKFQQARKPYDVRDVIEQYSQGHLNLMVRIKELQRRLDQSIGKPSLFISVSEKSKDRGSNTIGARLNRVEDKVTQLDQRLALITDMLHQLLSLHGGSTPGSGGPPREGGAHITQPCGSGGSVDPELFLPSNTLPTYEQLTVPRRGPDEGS

For `O=c1c2c3nc(n2Cc2ccc(Cl)cc2)Oc2ccc(F)c(c2)OCCCCCCn3c(=O)n1CCCO` [JDIC-127], the “Agonist JDIC-127 @10 μmol/L” value ([1]; M3, agonist mode) was 0.99%, the inhibition at 10 µM ([1]; M3, antagonist mode, 10 μmol/L, read-out: Antagonist JDIC-127 @10 μmol/L) was -1.46% and the “Antagonist JDIC-127 @5 μmol/L” value [2] was 2.98%. The “Agonist JDIC-127 @ 5 μmol/L” value ([3]; nAChRα4β2, agonist mode) was 0.97%, the “Antagonist JDIC-127 @5 μmol/L” value ([3]; nAChRα4β2, antagonist mode) was 2.92% and the bioavailability [4] was 7.5%. For the same molecule, the C0 ([4]; iv, 2 mg/kg) was 1450 ng/mL, the MRT ([4]; iv, 2 mg/kg) was 52.8 min and the clearance ([4]; iv, 2 mg/kg) was 66.8 mL/min/kg. The half-life ([4]; iv, 2 mg/kg) was 59.4 min, the Vd ([4]; iv, 2 mg/kg, VSS, i.v.) was 3.51 L/kg and the Vd ([4]; iv, 2 mg/kg, Vd) was 5.71 L/kg. For the same molecule, the Cmax ([4]; po, 10 mg/kg) was 177 ng/mL, the MRT ([4]; po, 10 mg/kg) was 114 min and the Tmax ([4]; po, 10 mg/kg) was 15 min. The half-life ([4]; po, 10 mg/kg) was 84 min, the “efficacy in TST relative to reference drugs” value ([5]; 0.3 mg/kg p.o. vs 10 mg/kg desipramine, 3 mg/kg HC-070) was “comparable efficacy to desipramine and HC-070” and the “immobility time in TST” value ([5]; 0.3 or 3 mg/kg p.o., 60 min prior to testing) was “significantly reduced”. For the same molecule, the “Antagonist JDIC-127 @5 μmol/L” value [6] was 19.40%, the inhibition at 10 µM [7] was 29.4% and the “Antagonist JDIC-127 @5 μmol/L” value [8] was 22.77%. For the same molecule, the IC50 [9] was 0.374 nM, the “effect on the 44 safety targets” value [10] was “no significant inhibitory or stimulatory effects” and the “percentage of entries into the open arms, EPM” value [11] was “significantly increased”. The “percentage of entries in the open arms, EPM” value [12] was “significantly increased”, the inhibition at 1 µM [13] was < 20% and the inhibition at 10 µM [14] was 11.4%. The “Agonist JDIC-127 @10 μmol/L” value ([15]; CB2, agonist mode) was 26.01% and the inhibition at 10 µM ([15]; CB2, antagonist mode, 10 μmol/L, read-out: Antagonist JDIC-127 @10 μmol/L) was -0.84%.
